This is an account of results in ChEMBL document CHEMBL1201862, “PubChem BioAssay data set” (2004).

The structures appear in SMILES notation.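 Dose response: 5 concentrations. Exposure: 48 h. Format: 96-well plates. Endpoint: linear interpolation; highest concentration if not reached. Here, GI50 denotes the concentration required for 50% inhibition of growth.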 Calls of active or inactive are those of the source. Rule as the data show it: active = GI50 up to about 1.1 µM and inactive = higher.

Test systems include CCRF-CEM; EKVX; HCT-15; HL-60; HOP-62; IGROV-1; KM12; LOX IMVI; NCI-H23; OVCAR-4; SF-268; SK-MEL-28; SN12C; SNB-19; TK-10; UACC-257; UO-31; DLD-1; DMS-114; LXFL 529.
Holding throughout (experiment): growth of human tumour cells (NCI), 48 h

Take `O=C(O)C1(Cc2ccccc2)Cc2ccccc2C1`: the GI50 in the assay on CCRF-CEM is > 100 µM (inactive); in the assay on EKVX it was > 100 µM (inactive); in the assay with HCT-15, over 100 µM; with HL-60, > 100 µM (inactive); with HOP-62 it was > 100 µM (inactive); in the assay with IGROV-1 it was > 100 µM (inactive). In addition, the GI50 with KM12, in the assay with LOX IMVI, with NCI-H23, in the assay with OVCAR-4, in the assay with SF-268 and with SK-MEL-28 was > 100 µM (inactive) throughout. Moreover, the GI50 in the assay with SN12C, in the assay on SNB-19, in the assay on TK-10, in the assay on UACC-257 and in the assay on UO-31 was > 100 µM (inactive) each time.
For `CN(C)CCCNC(=O)c1cccc2ccccc12`, the GI50 with CCRF-CEM was > 100 µM (inactive); with DLD-1 it was > 100 µM (inactive); in the assay on DMS-114, > 100 µM (inactive); with HCT-15 it was over 100 µM; in the assay on HL-60 it was 12.7 µM (inactive); in the assay on KM12, > 100 µM (inactive). The GI50 in the assay with LOX IMVI, in the assay on LXFL 529, with NCI-H23, in the assay on OVCAR-4, in the assay on SF-268 and with SK-MEL-28 was > 100 µM (inactive) in each case. Further, the GI50 in the assay with SN12C is > 100 µM (inactive); in the assay on SNB-19, > 100 µM (inactive); in the assay on TK-10, > 100 µM (inactive); in the assay with UACC-257 it was > 100 µM (inactive); in the assay with UO-31, > 10 µM (inactive).
On to `CC12CCC3=C(CSC4=C3CSc3ccccc34)C1=CCCC2=O` (centres undefined), for which the GI50 is 69.8 µM (inactive) in the assay with CCRF-CEM; 29.4 µM (inactive) in the assay with DLD-1; 69.5 µM (inactive) with DMS-114; 42.5 µM (inactive) in the assay on EKVX; 29.8 µM in the assay with HCT-15; 73.1 µM (inactive) in the assay on HL-60. Besides, the GI50 with HOP-62 is 20.4 µM (inactive); with KM12 it was 54.2 µM (inactive); in the assay on LOX IMVI, 69.8 µM (inactive); with LXFL 529, 37.1 µM (inactive); in the assay on NCI-H23, > 100 µM (inactive); in the assay on OVCAR-4, 14.8 µM (inactive). Besides, the GI50 in the assay on SF-268 was > 100 µM (inactive); in the assay on SK-MEL-28, > 100 µM (inactive); with SN12C it was > 100 µM (inactive); with SNB-19 it was 66.5 µM (inactive); in the assay with TK-10 it was 38 µM (inactive); in the assay with UO-31, 70.1 µM (inactive).
As for `Nc1nc(=O)[nH]c2c1cnn2COCCO`, the GI50 is > 100 µM (inactive) with CCRF-CEM; > 100 µM (inactive) in the assay on DLD-1; > 100 µM (inactive) with DMS-114; > 100 µM (inactive) with EKVX; over 100 µM with HCT-15; > 100 µM (inactive) in the assay with HL-60. Also, the GI50 in the assay on IGROV-1 is > 100 µM (inactive); in the assay with KM12, > 100 µM (inactive); with LOX IMVI, > 100 µM (inactive); with LXFL 529, > 100 µM (inactive); with NCI-H23 it was 17.3 µM (inactive); in the assay with OVCAR-4 it was > 100 µM (inactive). The GI50 in the assay with SF-268 is > 100 µM (inactive); in the assay with SK-MEL-28, 37.1 µM (inactive); with SN12C it was > 100 µM (inactive); in the assay on SNB-19 it was > 100 µM (inactive); in the assay with TK-10, 20.7 µM (inactive); in the assay with UACC-257, > 100 µM (inactive). For the same compound, the GI50 in the assay with UO-31 is > 100 µM (inactive).
Take `C[C@H]1SC(c2ccc(Cl)cc2Cl)N(NC(=O)c2ccncc2)C1=O` (some centres undefined): the GI50 is 30.1 µM (inactive) with CCRF-CEM; 31.1 µM (inactive) in the assay with EKVX; 42 µM in the assay with HCT-15; 28.9 µM (inactive) with HL-60; 33.7 µM (inactive) in the assay with HOP-62; 41.2 µM (inactive) in the assay with IGROV-1. The GI50 in the assay with KM12 is 36.7 µM (inactive); with NCI-H23, 33.3 µM (inactive); in the assay with SF-268, 22.5 µM (inactive); with SK-MEL-28 it was 31.3 µM (inactive); in the assay on SN12C it was 45.9 µM (inactive); in the assay with SNB-19, 43.2 µM (inactive). In addition, in the assay on UO-31, the GI50 was 25.3 µM (inactive).
